Read-outs that look alike come from different tables or passages of the source.
Assays:
[1] = system: Stage III-V gametocytes (blood stage P. falciparum parasites); experiment: In vitro drug activity on gametocytes (AlamarBlue viability assay); assay type: cell-based, Plasmodium falciparum; settings: for EC50: read-out: Gametocyte EC50
Outline: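 P. falciparum 3D7 stage III–V gametocytes (also HB3, Dd2), enriched by 50 mM N-acetylglucosamine and Percoll gradient, seeded at 20,000/well with compound for 72 h at 37° C, 5% CO2. AlamarBlue then added for 24 h; viability read as fluorescence (Ex 525, Em 598 nm).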

[2] = Microsomal stability (rat); assay type: in vitro ADME; settings: rat microsomes
Solubility at pH 7.4 = assay type: physicochemical
PAMPA permeability = assay type: in vitro ADME; settings: PAMPA
[3] = system: Asexual parasites of P. falciparum strain 3D7; experiment: In vitro drug activity on asexual parasites (SYBR Green assay); assay type: cell-based, Plasmodium falciparum
Outline: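 3D7 parasites at 0.5% parasitemia and 2% hematocrit were exposed to drugs (DMSO ≤0.5%) for 72 h under standard culture conditions, in duplicate. After freeze-thaw lysis, SYBR Green I lysis buffer was added for 30 min at room temperature, and fluorescence was read at 490/520 nm.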

mTOR = mTOR (Homo sapiens, UniProt P42345); experiment: mTOR activity (no method described); assay type: biochemical
[4] = P. falciparum stage III-V gametocytes, 72 h incubation, AlamarBlue
[5] = P. falciparum 3D7 asexual parasites, 72 h, SYBR Green

Row | SMILES | EC50 [1, 4] [nM] | Microsomal Stability (rat) T1/2 [2] [min] | Sol @ pH 7.4 (ug/mL) (Solubility at pH 7.4) | PAMPA Permeability (×10^6 cm/s) (PAMPA permeability) | EC50 [3, 5] [nM] | EC50 [1] [nM] | EC50 [3] [nM] | mTOR (mTOR) [µM] | Sol @ pH 7.4 (Solubility at pH 7.4) [ug/mL] | Gametocyte EC50 [1]
1 | CN(C)Cc1ccc(-c2ccc3ncc4ccc(=O)n(-c5cccc(S(C)(=O)=O)c5)c4c3c2)cc1 [Compound 55] | 5340 | 9.45 | >71.00 | 788.14 ×10^6 cm/s | – | – | – | – | – | –
2 | CCN(CC)Cc1ccc(-c2ccc3ncc4ccc(=O)n(-c5ccc6c(c5)CNC6=O)c4c3c2)cc1 [Compound 363] | 860 | – | 57.74 | 8.76 ×10^6 cm/s | 450 | – | – | – | – | –
3 | CN(C)Cc1cc(-n2c(=O)ccc3cnc4ccc(-c5ccc(Cl)cc5)cc4c32)ccc1S(C)(=O)=O [Compound 67] | 1340 | 1.7 | <1 | 1449.1 ×10^6 cm/s | – | – | – | – | – | –
4 | CCS(=O)(=O)c1ccc(-n2c(=O)ccc3cnc4ccc(-c5ccc(Cl)cc5)cc4c32)cc1 [Compound 27] | 108 | >30.0 | <1.0 | <1.0 ×10^6 cm/s | – | – | – | – | – | –
5 | O=C1NCc2ccc(-n3c(=O)ccc4cnc5ccc(-c6ccc(Cl)cc6)cc5c43)cc21 [Compound 344] | 1500 | 19.2 | <1.0 | 238.8 ×10^6 cm/s | – | – | – | – | – | –
6 | CS(=O)(=O)c1cccc(-n2c(=O)ccc3cnc4ccc(-c5ccc(N)nc5)cc4c32)c1 [Compound 80] | 214 | 7.1 | 49.68 | 50.85 ×10^6 cm/s | – | – | – | – | – | –
7 | CN(C)Cc1ccc(-c2ccc3ncc4ccc(=O)n(-c5ccc6c(c5)CCC(=O)N6C)c4c3c2)cc1 [Compound 358] | 2180 | – | >72.00 | 1209.2 ×10^6 cm/s | 878 | – | – | – | – | –
8 | C[S+]([O-])c1ccc(-n2c(=O)ccc3cnc4ccc(-c5ccc(N)nc5)cc4c32)cc1 (stereo not shown) [Compound 81] | 33.9 | – | 10 | 5.1 ×10^6 cm/s | – | – | – | – | – | –
9 | Nc1ccc(-c2ccc3ncc4ccc(=O)n(-c5ccc6c(c5)CNC6=O)c4c3c2)cn1 [Compound 388] | 88.2 | – | 11.8 | 2 ×10^6 cm/s | 28.2 | – | – | – | – | –
10 | NC(=O)c1cc(-c2ccc3ncc4ccc(=O)n(-c5ccc(C(=O)N6CCOCC6)cc5)c4c3c2)ccc1Cl [Compound 149] | – | >30.0 | – | – | – | 840 | 409 | 6.235 | 8.8 | –
11 | COC(=O)c1cc(-c2ccc3ncc4ccc(=O)n(-c5ccc(C(=O)N6CCOCC6)cc5)c4c3c2)ccc1Cl [Compound 152] | – | 3.3 | – | – | – | 4040 | 2200 | 0.7962 | <1.0 | –
12 | O=C(c1ccc(-n2c(=O)ccc3cnc4ccc(-c5ccc(Cl)cc5)cc4c32)cc1)N(C1CCCCC1)C1CC1 [Compound 142] | – | 1.4 | – | – | – | 50000 | 13800 | 46.17 | <1.0 | –
13 | CCn1c(=O)n(-c2cccc(C#N)c2)c2c3cc(-c4ccc(Cl)cc4)ccc3ncc21 [Compound 440] | – | >30.0 | – | – | – | 2180 | 787 | 100 | <1.0 | –
14 | Cn1c(=O)n(-c2cccc(C#N)c2)c2c3cc(-c4ccc(Cl)cc4)ccc3ncc21 [Compound 398] | – | >30.0 | – | – | – | 194 | 105 | 2.471 | <1.0 | –
15 | Nc1ccc(-c2ccc3ncc4ccc(=O)n(-c5ccc(C(=O)N6CCOCC6)cc5)c4c3c2)cc1 [Compound 118] | – | >30.0 | – | – | – | 29.6 | 6.6 | 0.2691 | <1.0 | –
16 | O=C(c1ccc(-n2c(=O)ccc3cnc4ccc(-c5ccc(Cl)c(O)c5)cc4c32)cc1)N1CCOCC1 [Compound 114] | – | 23.3 | – | – | – | 13.6 | 6.95 | 0.4313 | <1.0 | –
17 | COC(=O)CN1Cc2cc(-n3c(=O)ccc4cnc5ccc(-c6ccc(CN(C)C)cc6)cc5c43)ccc2C1=O [Compound 366] | 3760 | – | 14.8 | 47.8 ×10^6 cm/s | 1240 | – | – | – | – | –
18 | Nc1ccc(-c2ccc3ncc4ccc(=O)n(-c5ccc6c(c5)CC(=O)N6)c4c3c2)cn1 [Compound 389] | 65.3 | – | <1.0 | <9.7 ×10^6 cm/s | 21.8 | – | – | – | – | –
19 | O=C(c1ccc(-n2c(=O)ccc3cnc4ccc(-c5ccc(Cl)cc5)cc4c32)cc1)N1C2CCCC1CC2 [Compound 137] | – | 1.6 | – | – | – | 1000 | 188 | 1.518 | <1.0 | –
20 | O=C(c1ccc(-n2c(=O)ccc3cnc4ccc(-c5ccc(O)cc5)cc4c32)cc1)N1CCOCC1 [Compound 119] | – | 18.4 | – | – | – | 32.4 | 7.55 | 0.07539 | <1.0 | –
21 | Cc1ccc(C#N)cc1-n1c(=O)[nH]c2cnc3ccc(-c4ccc(Cl)cc4)cc3c21 [Compound 399] | – | >30.0 | – | – | – | 522 | 219 | 100 | <1.0 | –
22 | CN(C)Cc1ccc(-c2ccc3ncc4ccc(=O)n(-c5ccc(N6CCOCC6)c(C#N)c5)c4c3c2)cc1 [Compound 5] | 508 | – | 7.03 | 725.27 ×10^6 cm/s | – | – | – | – | – | –
23 | Nc1ccc(-c2ccc3ncc4ccc(=O)n(-c5ccc6c(c5)CCNC6=O)c4c3c2)cn1 [Compound 393] | 30.7 | – | 6.26 | <1.10 ×10^6 cm/s | 9.3 | – | – | – | – | –
24 | CCN(CC)Cc1ccc(-c2ccc3ncc4ccc(=O)n(-c5ccc(C(=O)N6CCOCC6)cc5)c4c3c2)cc1 [Compound 175] | – | >30.00 | – | – | – | 1620 | 731 | 11.78 | 66.62 | –
25 | CC(=O)n1c(=O)n(-c2cccc(C#N)c2)c2c3cc(-c4ccc(Cl)cc4)ccc3ncc21 [Compound 405] | – | 2.4 | – | – | – | 666 | 298 | 100 | <0.1 | –
26 | O=C(c1ccc(-n2c(=O)ccc3c[n+]([O-])c4ccc(-c5ccc(Cl)cc5)cc4c32)cc1)N1CCOCC1 [Compound 148] | – | >30.0 | – | – | – | 4580 | 601 | 18.17 | 21.8 | –
27 | O=C(O)CN1Cc2cc(-n3c(=O)ccc4cnc5ccc(-c6ccc(Cl)cc6)cc5c43)ccc2C1=O [Compound 365] | 30600 | – | 55.9 | <1.8 ×10^6 cm/s | 482 | – | – | – | – | –
28 | O=C(O)c1cc(-c2ccc3ncc4ccc(=O)n(-c5ccc(C(=O)N6CCOCC6)cc5)c4c3c2)ccc1Cl [Compound 117] | – | >30.0 | – | – | – | – | 14400 | 4.734 | >80.0 | Inactive

— patent US11753408B2, “Compounds and method for blocking transmission of malarial parasite” (The United States of America, as represented by the …, priority 2016, dated 2023)
